According to US12624044B2, “SMARCA degraders and uses thereof” (Kymera Therapeutics, Inc., priority 2019, dated 2026):

How the values were obtained:
[1] = biological target: T1, SMARCA4 (Homo sapiens, UniProt P51532); assay: SMARCA4 Western blot MV4-11 degradation; format: cell-based; details: 24 h; for Dmax: MV4-11, MV4-11 cells, read-out: SMARCA4 WB MV411 degradation 24 h: Average Dmax %; for DC50: MV4-11 cells, read-out: SMARCA4 WB MV411 degradation 24 h: Average external-Abs DC50
T1 construct: SMARCA2 and SMARCA4 protein degradation in MV4-11 cells; endogenous in cells; host or cells: MV4-11
T1 sequence (P51532 whole entry): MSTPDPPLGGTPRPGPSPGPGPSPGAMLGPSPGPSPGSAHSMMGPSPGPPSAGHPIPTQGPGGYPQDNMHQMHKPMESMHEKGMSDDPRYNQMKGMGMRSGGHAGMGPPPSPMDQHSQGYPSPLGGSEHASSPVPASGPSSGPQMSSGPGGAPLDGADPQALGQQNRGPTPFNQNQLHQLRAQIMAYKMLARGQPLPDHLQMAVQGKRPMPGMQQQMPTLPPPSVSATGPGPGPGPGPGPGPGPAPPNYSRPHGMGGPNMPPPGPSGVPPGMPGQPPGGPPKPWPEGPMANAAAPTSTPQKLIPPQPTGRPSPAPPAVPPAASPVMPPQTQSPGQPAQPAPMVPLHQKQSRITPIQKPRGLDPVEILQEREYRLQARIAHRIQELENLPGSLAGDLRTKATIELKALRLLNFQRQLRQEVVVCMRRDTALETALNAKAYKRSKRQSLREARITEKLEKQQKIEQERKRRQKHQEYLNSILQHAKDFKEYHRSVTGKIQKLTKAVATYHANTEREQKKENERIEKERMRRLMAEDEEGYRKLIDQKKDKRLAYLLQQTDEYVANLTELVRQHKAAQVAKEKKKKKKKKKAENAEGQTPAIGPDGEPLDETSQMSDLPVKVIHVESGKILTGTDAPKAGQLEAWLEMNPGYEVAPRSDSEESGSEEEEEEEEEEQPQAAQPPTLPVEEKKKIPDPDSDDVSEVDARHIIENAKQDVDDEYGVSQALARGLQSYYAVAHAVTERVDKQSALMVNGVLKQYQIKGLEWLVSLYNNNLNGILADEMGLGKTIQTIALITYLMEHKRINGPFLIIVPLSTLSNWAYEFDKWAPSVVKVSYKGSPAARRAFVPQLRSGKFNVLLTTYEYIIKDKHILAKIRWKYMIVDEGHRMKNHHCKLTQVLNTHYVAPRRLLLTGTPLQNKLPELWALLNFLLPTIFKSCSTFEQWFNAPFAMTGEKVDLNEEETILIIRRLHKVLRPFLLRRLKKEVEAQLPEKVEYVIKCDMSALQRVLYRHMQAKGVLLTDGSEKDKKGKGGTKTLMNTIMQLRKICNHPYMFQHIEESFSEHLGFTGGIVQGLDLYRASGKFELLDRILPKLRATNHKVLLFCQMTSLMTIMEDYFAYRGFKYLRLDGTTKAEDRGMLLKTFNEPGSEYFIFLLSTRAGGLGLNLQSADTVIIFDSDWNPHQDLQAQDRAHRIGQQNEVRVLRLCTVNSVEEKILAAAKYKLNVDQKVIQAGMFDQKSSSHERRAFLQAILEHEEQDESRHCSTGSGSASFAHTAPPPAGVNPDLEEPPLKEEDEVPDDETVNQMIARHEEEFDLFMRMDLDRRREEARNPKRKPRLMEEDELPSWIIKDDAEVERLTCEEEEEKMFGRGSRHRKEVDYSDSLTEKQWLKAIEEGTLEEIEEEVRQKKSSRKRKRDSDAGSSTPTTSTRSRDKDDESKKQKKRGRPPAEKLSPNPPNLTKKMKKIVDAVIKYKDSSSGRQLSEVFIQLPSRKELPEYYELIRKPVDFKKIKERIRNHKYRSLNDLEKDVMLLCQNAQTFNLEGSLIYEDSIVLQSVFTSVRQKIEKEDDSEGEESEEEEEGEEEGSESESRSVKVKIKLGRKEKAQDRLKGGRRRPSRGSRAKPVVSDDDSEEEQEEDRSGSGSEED
How it was run: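 MV4-11 cells treated with compound for 24 h, lysed in RIPA with protease/phosphatase inhibitors, and SMARCA2 and SMARCA4 (BRG1) levels assessed by Western blot with β-actin loading control and LI-COR fluorescent read-out. Maximal degradation (Dmax %) after 24 h binned into letter codes.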

[2] = biological target: SMARCA2 (Homo sapiens, UniProt P51531); assay: MSD SMARCA2 degradation in NCI-H1299 cell line (24 h); format: cell-based; design: HC: NCI-H1299 cells treated with DMSO; host or cells: NCI-H1299; details: for Dmax: NCI-H1299, NCI-H1299 cells; for DC50: read-out: SMARCA2 MSD H1299 degradation 24 h: External Abs-DC50
SMARCA2, sequence (P51531 whole entry): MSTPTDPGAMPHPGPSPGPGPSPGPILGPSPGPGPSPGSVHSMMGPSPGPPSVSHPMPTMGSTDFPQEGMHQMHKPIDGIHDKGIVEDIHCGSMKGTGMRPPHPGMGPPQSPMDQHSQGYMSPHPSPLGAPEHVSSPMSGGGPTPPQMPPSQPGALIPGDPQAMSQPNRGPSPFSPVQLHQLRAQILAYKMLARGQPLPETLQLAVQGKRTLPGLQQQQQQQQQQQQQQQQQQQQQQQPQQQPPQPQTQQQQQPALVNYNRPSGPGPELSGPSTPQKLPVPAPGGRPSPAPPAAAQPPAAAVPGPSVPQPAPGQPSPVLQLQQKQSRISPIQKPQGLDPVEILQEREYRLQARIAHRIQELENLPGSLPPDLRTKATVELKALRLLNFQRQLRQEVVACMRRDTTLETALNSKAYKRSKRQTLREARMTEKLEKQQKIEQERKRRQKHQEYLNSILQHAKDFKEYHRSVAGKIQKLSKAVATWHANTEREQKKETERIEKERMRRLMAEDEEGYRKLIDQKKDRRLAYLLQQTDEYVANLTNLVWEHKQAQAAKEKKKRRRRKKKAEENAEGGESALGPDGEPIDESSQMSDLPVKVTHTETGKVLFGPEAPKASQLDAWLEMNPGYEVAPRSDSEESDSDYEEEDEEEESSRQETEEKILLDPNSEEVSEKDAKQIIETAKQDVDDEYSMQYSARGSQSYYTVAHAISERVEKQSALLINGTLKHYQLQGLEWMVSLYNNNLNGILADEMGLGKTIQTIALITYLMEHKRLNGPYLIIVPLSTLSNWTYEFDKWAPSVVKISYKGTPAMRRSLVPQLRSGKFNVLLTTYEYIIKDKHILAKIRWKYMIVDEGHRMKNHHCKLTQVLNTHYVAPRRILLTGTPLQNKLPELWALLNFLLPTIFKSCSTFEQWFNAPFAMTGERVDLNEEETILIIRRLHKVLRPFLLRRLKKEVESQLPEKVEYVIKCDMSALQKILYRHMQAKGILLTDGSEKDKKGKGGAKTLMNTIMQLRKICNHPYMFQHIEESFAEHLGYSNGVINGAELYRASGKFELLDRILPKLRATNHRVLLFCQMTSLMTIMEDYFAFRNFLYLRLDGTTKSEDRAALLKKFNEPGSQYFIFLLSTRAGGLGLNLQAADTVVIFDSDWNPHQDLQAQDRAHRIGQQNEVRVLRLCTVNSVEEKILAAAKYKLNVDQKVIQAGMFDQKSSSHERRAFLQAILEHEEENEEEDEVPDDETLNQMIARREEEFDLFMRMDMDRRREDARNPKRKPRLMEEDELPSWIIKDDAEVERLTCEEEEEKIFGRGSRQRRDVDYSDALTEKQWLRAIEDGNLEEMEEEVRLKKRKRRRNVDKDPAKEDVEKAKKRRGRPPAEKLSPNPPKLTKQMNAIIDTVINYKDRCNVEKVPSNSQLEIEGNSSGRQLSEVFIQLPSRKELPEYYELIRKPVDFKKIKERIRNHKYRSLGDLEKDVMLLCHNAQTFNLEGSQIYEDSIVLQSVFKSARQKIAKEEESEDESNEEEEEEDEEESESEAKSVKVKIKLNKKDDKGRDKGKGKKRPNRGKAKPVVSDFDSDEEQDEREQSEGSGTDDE
How it was run: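 SMARCA2 measured by MSD electrochemiluminescence (primary 0.3 ug/ml, secondary 1 ug/ml) on lysates from NCI-H1299 cells exposed to compounds for 24 h across nine 3-fold dilutions. Signal scaled from A2780 cells (no SMARCA2) to DMSO-treated H1299 controls, and maximal degradation after 24 h reported in letter categories.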

Row | SMARCA2 MSD H1299 degradation 24 h: Dmax % ([2]; NCI-H1299 cells) | Structure (SMILES) | Dmax [1] | DC50 [1] | Dmax [2] | DC50 ([2]; NCI-H1299 cells)
1 | – | Cc1ncsc1-c1ccc(CNC(=O)[C@@H]2C[C@@H](O)CN2C(=O)[C@@H](NC(=O)[C@H]2CC[C@@H](CN3CCC(n4cc(-c5cc(-c6ccccc6O)nnc5N)cn4)CC3)CC2)C(C)(C)C)cc1 [I-402] | < 50% | > 1000 nM | 70 to 90% | 100 to 500 nM
2 | – | Cc1ncsc1-c1ccc(CNC(=O)[C@@H]2C[C@@H](O)CN2C(=O)[C@@H](NC(=O)[C@H]2CC[C@H](CN3CCC(n4cc(-c5cc(-c6ccccc6O)nnc5N)cn4)CC3)CC2)C(C)(C)C)cc1 [I-403] | < 50% | 501 to 1000 nM | > 90% | 100 to 500 nM
3 | – | Cn1c(=O)n(C2CCC(=O)NC2=O)c2ccc(CCCCCCCc3nccc(N4C5CCC4CN(c4cc(-c6ccccc6O)nnc4N)C5)n3)cc21 (centres unmarked) [I-287, 3-(5-(7-(4-(3-(3-amino-6-(2-hydroxyphenyl)pyridazin-4-yl)-3,8-diazabicyclo[3.2.1]octan-8-yl)pyrimidin-2-yl)heptyl)-3-methyl-2-oxo-2,3-dihydro-1H-benzo[d]imidazol-1-yl)piperidine-2,6-dione] | 50 to 70% | > 1000 nM | > 90% | 100 to 500 nM
4 | A (A (>90% degradation)) | Cc1ncsc1-c1ccc(CNC(=O)[C@@H]2C[C@@H](O)CN2C(=O)[C@@H](NC(=O)[C@H]2CC3(C2)C[C@H](N2CCC(n4cc(-c5cc(-c6ccccc6O)nnc5N)cn4)CC2)C3)C(C)(C)C)cc1 (some centres unmarked) [I-389] | 70 to 90% | < 100 nM | – | 100 to 500 nM
5 | – | Cc1ncsc1-c1ccc(CNC(=O)[C@@H]2C[C@@H](O)CN2C(=O)[C@@H](NC(=O)[C@H]2CC[C@@H](c3cnc(N4C5CCC4CN(c4cc(-c6ccccc6O)nnc4N)C5)nc3)CC2)C(C)(C)C)cc1 [I-336] | > 90% | < 100 nM | – | < 100 nM
6 | – | Cc1ncsc1-c1ccc(CNC(=O)[C@@H]2C[C@@H](O)CN2C(=O)[C@@H](NC(=O)[C@H]2CC[C@H](c3cnc(N4C5CCC4CN(c4cc(-c6ccccc6O)nnc4N)C5)nc3)CC2)C(C)(C)C)cc1 [I-337, (2S,4R)-1-((2S)-2-((1r,4S)-4-(2-(3-(3-amino-6-(2-hydroxyphenyl)pyridazin-4-yl)-3,8-diazabicyclo[3.2.1]octan-8-yl)pyrimidin-5-yl)cyclohexanecarboxamido)-3,3-dimethylbutanoyl)-4-hydroxy-N-(4-(4-methylthiazol-5-yl)benzyl)pyrrolidine-2-carboxamide] | > 90% | < 100 nM | > 90% | < 100 nM
